| SMILES | logP |
| --- | --- |
| Cc1ccc2c(c1)C(NC(=O)N(CCCl)N=O)c1ccccc1O2 (stereo unspecified) | 4.65 |
| Cc1cccc2c1Oc1ccccc1C2NC(=O)N(CCCl)N=O (stereo unspecified) | 4.77 |
| COc1ccc2c(c1)C(NC(=O)N(CCCl)N=O)c1ccccc1O2 (stereo unspecified) | 4.48 |
| Cc1cc(C)c2c(c1)C(NC(=O)N(CCCl)N=O)c1ccccc1O2 (stereo unspecified) | 5.19 |
| COc1cccc2c1Oc1ccccc1C2NC(=O)N(CCCl)N=O (stereo unspecified) | 3.68 |
| O=NN(CCCl)C(=O)NCC1c2ccccc2Oc2ccccc21 | 4.13 |
| O=NN(CCCl)C(=O)NC1c2ccccc2Oc2ccccc21 | 4.17 |
| Cc1cccc2c1Oc1ccccc1C2NC(=O)CCN(C)C (stereo unspecified) | 2.61 |
| Cc1cccc2c1Sc1ccccc1C2NC(=O)N(CCCl)N=O (stereo unspecified) | 5.03 |
| O=NN(CCCl)C(=O)NCCSC1c2ccccc2Oc2ccccc21 | 5 |
| CCN(CC)CC(=O)NC1c2ccccc2Sc2c(C)cccc21 (stereo unspecified) | 4.24 |
| CCN(CC)CC(=O)NC1c2ccccc2Oc2ccccc21 | 3.49 |
| CCOc1ccc2c(c1)C(NC(=O)N(CCCl)N=O)c1ccccc1O2 (stereo unspecified) | 4.86 |
| Cc1ccc2c(c1)C(NC(=O)N(CCCl)N=O)c1ccccc1S2 (stereo unspecified) | 5.01 |
| O=NN(CCCl)C(=O)NC1c2ccccc2Sc2ccccc21 | 4.59 |
| Cc1cccc2c1Oc1ncccc1C2NC(=O)CN(C)C (stereo unspecified) | 2.19 |

Reference: the SangsterLogP compilation
